# Measurements published in patent US12030883B2, “Hetero-tricyclic compounds as inhibitors of KRAS” (Incyte Corporation, priority 2021, dated 2024).
# Tests used:
# KRAS G12D [1] = biological target: T1, KRAS G12D (Homo sapiens, UniProt P01116, G12D); assay: GDP-GTP exchange assay, KRAS G12D (bodipy-GDP/GppNHp, SOS1); type: biochemical; details: bodipy-loaded KRAS G12D 2.5 nM, 4 hours pre-incubation with inhibitor, SOS1 150 nM, GppNHp 500 uM; read-out: G12D_exchange (KRAS_G12D exchange assay IC50)
# Method: (§1) The inhibitor potency of the exemplified compounds was determined in a fluorescence based guanine nucleotide exchange assay, which measures the exchange of bodipy-GDP (fluorescently labeled GDP) for GppNHp (Non-hydrolyzable GTP analog) to generate the active state of KRAS in the presence of SOS1 (guanine nucleotide exchange factor). Inhibitors were serially diluted in DMSO and a volume of 0.1 μL was transferred to the wells of a black low volume 384-well plate. Five μL/well volume of bodipy-loaded KRAS G12D or G12V diluted to a final concentration of 2.5 nM in assay buffer (25 mM Hepes pH 7.5, 50 mM NaCl, 10 mM MgCl2 and 0.01% Brij-35) was added to the plate and pre-incubated with inhibitor for 4 hours (G12D) or 3 hours (G12V) at ambient temperature. A cyclic peptide described to selectively bind G12D mutant (Sakamoto et al., BBRC 484.3 (2017), 605-611) or internal compounds with confirmed binding were used as positive controls in the assay plates. The exchange was initiated by the addition of a 5 μL/well volume containing 1 mM GppNHp and 300 nM SOS1 in assay buffer. The 10 μL/well reaction concentration of the bodipy-loaded KRAS G12D or G12V, GppNHp, and SOS1 were 2.5 nM, 500 uM, and 150 nM, respectively.
# (§2) Either GraphPad prism or XLfit was used to analyze the data. The IC50 values were derived by fitting the data to a four parameter logistic equation producing a sigmoidal dose-response curve with a variable Hill coefficient. Prism equation: Y=Bottom+(Top−Bottom)/(1+10^((LogIC50-X)*Hill slope)); XLfit equation: Y=(A+((B−A)/(1+((X/C)^D)))) where X is the logarithm of inhibitor concentration and Y is the response.
# KRAS G12V = KRAS G12V (Homo sapiens, UniProt P01116, G12V); assay: GDP-GTP exchange assay, KRAS G12V (bodipy-GDP/GppNHp, SOS1); type: biochemical; details: bodipy-loaded KRAS G12V 2.5 nM, 3 hours pre-incubation with inhibitor, SOS1 150 nM, GppNHp 500 uM; read-out: G12V_exchange (KRAS_G12V exchange assay IC50)
# Method: as §1, §2
# KRAS G12D [2] = biological target: T1, KRAS G12D; assay: KRAS_G12D pERK assay (cellular pERK HTRF assay); type: cell-based; set-up: host or cells: A427 or HPAF-II; details: KRAS G12D cells (A427, HPAF-II named in method), 2 hours incubation, Phospho-ERK 1/2 HTRF; read-out: G12D_PERK (KRAS_G12D pERK assay IC50)
# Method: MIA PaCa-2 (KRAS G12C; ATCC® CRL-1420), A427 (KRAS G12D; ATCC® HTB53), HPAF-II (KRAS G12D; ATCC® CRL-1997) and NCI-H838 (KRAS WT; ATCC® CRL-5844) cells are purchased from ATCC and maintained in RPMI 1640 media supplemented with 10% FBS (Gibco/Life Technologies). The cells are plated at 5000 cells per well (8 uL) into Greiner 384-well low volume, flat-bottom, tissue culture treated white plates and incubated overnight at 37° C., 5% CO2. The next morning, test compound stock solutions are diluted in media at 3× the final concentration, and 4 uL are added to the cells. The plate is mixed by gentle rotation for 30 seconds (250 rpm) at room temperature. The cells are incubated with the KRAS G12C and G12D compounds for 4 hours or 2 hours respectively at 37° C., 5% CO2.
# 4 uL of 4× lysis buffer with blocking reagent (1:25) (Cisbio) are added to each well and plates are rotated gently (300 rpm) for 30 minutes at room temperature. 4 uL per well of Cisbio anti Phospho-ERK 1/2 d2 is mixed with anti Phospho-ERK 1/2 Cryptate (1:1) are added to each well, mixed by rotation and incubated overnight in the dark at room temperature. Plates are read on the Pherastar plate reader at 665 nm and 620 nm wavelengths. IC50 determination is performed by fitting the curve of inhibitor percent inhibition versus the log of the inhibitor concentration using the GraphPad Prism 7 software.
# T1 sequence (P01116 1-188 isoform P01116-2 G12D): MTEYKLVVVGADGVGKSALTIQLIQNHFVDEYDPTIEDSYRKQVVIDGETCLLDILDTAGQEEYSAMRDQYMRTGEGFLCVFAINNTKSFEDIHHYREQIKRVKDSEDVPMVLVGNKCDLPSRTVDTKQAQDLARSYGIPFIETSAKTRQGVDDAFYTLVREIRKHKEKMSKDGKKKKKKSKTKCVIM
# KRAS G12V, sequence (P01116 1-188 isoform P01116-2 G12V): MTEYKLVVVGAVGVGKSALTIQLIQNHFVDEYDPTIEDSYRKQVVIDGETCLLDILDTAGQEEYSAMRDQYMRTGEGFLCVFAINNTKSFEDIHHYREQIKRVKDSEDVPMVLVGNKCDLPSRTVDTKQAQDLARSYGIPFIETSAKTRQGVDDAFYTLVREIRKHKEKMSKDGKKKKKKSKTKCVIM
SMILES,IC50 (KRAS G12D [1]),IC50 (KRAS G12V),IC50 (KRAS G12D [2])
"C[C@H](Oc1nc2c(F)c(-c3cccc(Cl)c3Cl)c(CCC#N)cc2c2c1c(=O)c(-c1cnn(C)c1)cn2[C@H]1[C@H]2CN[C@@H]1C2)[C@@H]1CCCN1C (single isomer, unassigned) [Example 24a]",≤ 100 nM,≤ 100 nM,5000 to 10000 nM
"C[C@H](Oc1nc2c(F)c(-c3cc(O)cc4ccccc34)c(CCC#N)cc2c2c1CCCN2C1C2CNC1C2)[C@@H]1CCCN1C (single isomer, unassigned) [Example 15b]",≤ 100 nM,≤ 100 nM,≤ 100 nM
"C[C@@H](CN(C)C)Oc1nc2c(F)c(-c3cc(O)cc4ccccc34)c(CCC#N)cc2c2c1CCCN2C1C2CNC1C2 (single isomer, unassigned) [Example 16b]",≤ 100 nM,≤ 100 nM,100 to 1000 nM
"C[C@H](Oc1nc2c(F)c(-c3cc(O)cc4ccc(F)cc34)c(CCC#N)cc2c2c1NC(=O)CN2C1C2CNC1C2)[C@@H]1CCCN1C (single isomer, unassigned) [Example 4c]",≤ 100 nM,≤ 100 nM,≤ 100 nM
"CN1CCC[C@H]1COc1nc2c(F)c(-c3cc(O)cc4ccccc34)c(CCC#N)cc2c2c1CCCN2C1C2CNC1C2 (single isomer, unassigned) [Example 12b]",≤ 100 nM,≤ 100 nM,100 to 1000 nM
"CNC(=O)c1cccc(-c2nc3c(F)c(-c4cc(O)cc5ccccc45)c(CCC#N)cc3c3c2NC(=O)CN3C2C3CNC2C3)c1 (single isomer, unassigned) [Example 9a, 3-(1-((endo)-2-Azabicyclo[2.1.1]hexan-5-yl)-9-(2-cyanoethyl)-7-fluoro-8-(3-hydroxynaphthalen-1-yl)-3-oxo-1,2,3,4-tetrahydropyrazino[2,3-c]quinolin-5-yl)-N-methylbenzamide]",≤ 100 nM,≤ 100 nM,1000 to 5000 nM
"CC1Cc2c(OC[C@@H]3CCCN3C)nc3c(F)c(-c4cc(O)cc5ccccc45)c(CCC#N)cc3c2N(C2C3CNC2C3)C1 (single isomer, unassigned) [Example 14a]",≤ 100 nM,≤ 100 nM,100 to 1000 nM
"N#CCCc1cc2c3c(cnc2c(F)c1-c1cc(O)cc2ccccc12)NC(=O)CN3[C@@H]1[C@@H]2CN[C@H]1C2 (racemic) [Example 20a, 3-(1-((endo)-2-Azabicyclo[2.1.1]hexan-5-yl)-7-fluoro-8-(3-hydroxynaphthalen-1-yl)-3-oxo-1,2,3,4-tetrahydropyrazino[2,3-c]quinolin-9-yl)propanenitrile]",≤ 100 nM,≤ 100 nM,5000 to 10000 nM

# The next lines start with the values.
IC50 (KRAS G12D [1]),IC50 (KRAS G12V),IC50 (KRAS G12D [2]),SMILES
≤ 100 nM,≤ 100 nM,100 to 1000 nM,"Cn1cnc(-c2nc3c(F)c(-c4cc(O)cc5ccccc45)c(CCC#N)cc3c3c2NC(=O)CN3C2C3CNC2C3)c1 (single isomer, unassigned) [Example 7a, 3-(1-((endo)-2-Azabicyclo[2.1.1]hexan-5-yl)-7-fluoro-8-(3-hydroxynaphthalen-1-yl)-5-(1-methyl-1H-imidazol-4-yl)-3-oxo-1,2,3,4-tetrahydropyrazino[2,3-c]quinolin-9-yl)propanenitrile]"
≤ 100 nM,≤ 100 nM,100 to 1000 nM,"C[C@@H](CN(C)C)Oc1nc2c(F)c(-c3cc(O)cc4ccccc34)c(CCC#N)cc2c2c1NC(=O)CN2C1C2CNC1C2 (single isomer, unassigned) [Example 11c]"
≤ 100 nM,≤ 100 nM,100 to 1000 nM,"C[C@H](Oc1nc2c(F)c(-c3cccc(Cl)c3Cl)c(CCC#N)cc2c2c1c(=O)c(-c1cnn(C)c1)cn2[C@H]1[C@H]2CN[C@@H]1C2)[C@@H]1CCCN1C (single isomer, unassigned) [Example 24b]"
≤ 100 nM,≤ 100 nM,1000 to 5000 nM,"CN(C)C1CN(c2nc3c(F)c(-c4cc(O)cc5ccccc45)c(CCC#N)cc3c3c2NC(=O)CN3C2C3CNC2C3)C1 (single isomer, unassigned) [Example 13a, 3-(1-((endo)-2-Azabicyclo[2.1.1]hexan-5-yl)-5-(3-(dimethylamino)azetidin-1-yl)-7-fluoro-8-(3-hydroxynaphthalen-1-yl)-3-oxo-1,2,3,4-tetrahydropyrazino[2,3-c]quinolin-9-yl)propanenitrile]"
≤ 100 nM,≤ 100 nM,5000 to 10000 nM,"CNC(=O)c1ccc(-c2nc3c(F)c(-c4cc(O)cc5ccccc45)c(CCC#N)cc3c3c2NC(=O)CN3C2C3CNC2C3)cn1 (single isomer, unassigned) [Example 5a, 5-(1-((endo)-2-Azabicyclo[2.1.1]hexan-5-yl)-9-(2-cyanoethyl)-7-fluoro-8-(3-hydroxynaphthalen-1-yl)-3-oxo-1,2,3,4-tetrahydropyrazino[2,3-c]quinolin-5-yl)-N-methylpicolinamide]"
≤ 100 nM,≤ 100 nM,100 to 1000 nM,"C[C@H](Oc1nc2c(F)c(-c3cccc(Cl)c3Cl)c(CCC#N)cc2c2c1NC(=O)CN2C1C2CNC1C2)[C@@H]1CCCN1C (single isomer, unassigned) [Example 2b]"
≤ 100 nM,≤ 100 nM,≤ 100 nM,"C[C@H](Oc1nc2c(F)c(-c3cccc4ccc(F)cc34)c(CCC#N)cc2c2c1NC(=O)CN2C1C2CNC1C2)[C@@H]1CCCN1C (single isomer, unassigned) [Example 3a]"
≤ 100 nM,100 to 1000 nM,1000 to 5000 nM,"C[C@H](Oc1nc2c(F)c(-c3cc(O)cc4ccc(F)cc34)c(CCC#N)cc2c2c1NC(=O)CN2C1C2CNC1C2)[C@@H]1CCCN1C (single isomer, unassigned) [Example 4d]"
≤ 100 nM,≤ 100 nM,1000 to 5000 nM,"CC1Cc2c(OC[C@@H]3CCCN3C)nc3c(F)c(-c4cc(O)cc5ccccc45)c(CCC#N)cc3c2N(C2C3CNC2C3)C1 (single isomer, unassigned) [Example 14b]"
